Assay results published in US8580965B2, “Substituted sulfonamide compounds” (Gruenenthal GmbH, priority 2006, dated 2013).
Counter-ions that a name gives are not always drawn.

Columns and labels:
[1] = biological target: T1, human B1R receptor (bradykinin 1 receptor) (Homo sapiens, UniProt P46663); assay: FLIPR Ca2+ assay (Fluo-4) on CHO K1 cells stably transfected with the human B1R gene; % activation and % inhibition at 10 μM; assay type: cell-based; settings: CHO K1 hB1R cells, Ca2+ inflow after 0.5 nM Lys-Des-Arg9-bradykinin; for inhibition at 10 µM: CHO-K1, test substance 10 μM, read-out: B1R antagonism, human [10 μM] % inhibition
T1 construct: host or cells: CHO K1 cells (hB1R cells)
T1 sequence (P46663 1-353): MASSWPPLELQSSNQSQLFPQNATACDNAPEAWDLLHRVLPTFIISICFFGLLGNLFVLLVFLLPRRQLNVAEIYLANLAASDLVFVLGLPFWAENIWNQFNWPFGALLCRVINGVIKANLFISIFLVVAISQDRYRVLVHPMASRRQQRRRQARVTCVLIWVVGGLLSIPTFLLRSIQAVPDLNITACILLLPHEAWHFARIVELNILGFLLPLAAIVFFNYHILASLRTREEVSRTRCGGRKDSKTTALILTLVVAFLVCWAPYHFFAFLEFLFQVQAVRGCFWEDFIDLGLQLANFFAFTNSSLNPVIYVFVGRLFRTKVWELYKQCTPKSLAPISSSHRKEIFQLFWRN
Outline: (§1)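 Fluo-4 Ca2+ flux on FLIPR in stable hB1R or rB1R CHO K1 lines, two additions. Agonism: 10 µM compound versus 0.5 nM Lys-Des-Arg9-BK (human) or 100 nM Des-Arg9-BK (rat); antagonism: same agonists applied 10 min later, suppression expressed against maximum achievable inhibition.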

[2] = biological target: T2, B1R receptor of the rat (bradykinin 1 receptor) (Rattus norvegicus, UniProt P97583); assay: FLIPR Ca2+ assay (Fluo-4) on CHO K1 cells stably transfected with the B1R gene of the rat; % activation and % inhibition at 10 μM; assay type: cell-based; settings: CHO K1 rB1R cells, Ca2+ inflow after 100 nM Des-Arg9-bradykinin; for inhibition at 10 µM: CHO-K1, test substance 10 μM, read-out: B1R antagonism, rat [10 μM] % inhibition
T2 construct: host or cells: CHO K1 cells (rB1R cells)
T2 sequence (P97583 1-337): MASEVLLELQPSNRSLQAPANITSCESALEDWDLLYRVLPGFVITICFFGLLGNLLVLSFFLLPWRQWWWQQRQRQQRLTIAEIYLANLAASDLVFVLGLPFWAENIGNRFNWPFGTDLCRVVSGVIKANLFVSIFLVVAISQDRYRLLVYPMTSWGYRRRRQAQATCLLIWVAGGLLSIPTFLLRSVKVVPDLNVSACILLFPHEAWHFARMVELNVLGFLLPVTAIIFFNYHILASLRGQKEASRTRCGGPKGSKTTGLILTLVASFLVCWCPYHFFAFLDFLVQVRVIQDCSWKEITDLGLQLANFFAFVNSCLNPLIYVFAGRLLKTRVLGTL
Outline: as §1

[3] = test substance 10 μM, hydrochloride

Row | SMILES | inhibition at 10 µM [1] | inhibition at 10 µM [2] | B1R antagonism, human [10 μM] % inhibition [1, 3] | B1R antagonism, rat [10 μM] % inhibition [2, 3]
1 | COc1cc(C)c(S(=O)(=O)N2CCC(COCC(=O)N3CCC(O)(c4cccc(C(F)(F)F)c4)CC3)C2)c(C)c1 (centres unmarked) [Example 231, 1-(4-hydroxy-4-(3-(trifluoromethyl)phenyl)piperidin-1-yl)-2-((1-(4-methoxy-2,6-dimethylphenylsulfonyl)pyrrolidin-3-yl)methoxy)ethanone] | 102% | 98.7% |  | 
2 | Cc1cc(S(=O)(=O)N(C)CCOCC(=O)N2CCC(O)(c3cccc(C(F)(F)F)c3)CC2)c(C)s1 [Example 258, N-(2-(2-(4-hydroxy-4-(3-(trifluoromethyl)phenyl)piperidin-1-yl)-2-oxoethoxy)ethyl)-N,2,5-trimethylthiophene-3-sulfonamide] | 71.5% | 96.1% |  | 
3 | COc1ccc(S(=O)(=O)N(C)CCOCC(=O)N2CCC(O)(c3ccccn3)CC2)cc1OC [Example 41, N-{2-[2-(4′-hydroxy-3′,4′,5′,6′-tetrahydro-2′H-[2,4′]bipyridinyl-1′-yl)-2-oxo-ethoxy]-ethyl}-3,4-dimethoxy-N-methyl-phenylsulfonamide] | 1.29% | -6.31% |  | 
4 | COc1ccc(S(=O)(=O)N2CCC(OCC(=O)N3CCC(O)(c4ccccn4)CC3)C2)cc1OC (centres unmarked) [Example 52, 2-[1-(3,4-dimethoxy-phenylsulfonyl)-pyrrolidin-3-yloxy]-1-(4′-hydroxy-3′,4′,5′,6′-tetrahydro-2′H-[2,4′]bipyridinyl-1′-yl)-ethanone] | -10% | 11.9% |  | 
5 | CN(CCOCC(=O)N1CCC(O)(Cc2ccccc2)CC1)S(=O)(=O)c1c(Cl)cc(Cl)cc1Cl [Example 9, N-{2-[2-(4-benzyl-4-hydroxy-piperidin-1-yl)-2-oxo-ethoxy]-ethyl}-2,4,6-trichloro-N-methyl-phenylsulfonamide] | 95.7% | 91.1% |  | 
6 | O=C(COCC1CCCCN1S(=O)(=O)c1cccc(C(F)(F)F)c1)N1CCC(O)(Cc2ccccc2)CC1 (centres unmarked) [Example 65, 1-(4-benzyl-4-hydroxy-piperidin-1-yl)-2-[1-(3-trifluoromethyl-phenylsulfonyl)-piperidin-2-ylmethoxy]-ethanone] | 21% | 25.8% |  | 
7 | COc1ccc(S(=O)(=O)N(C)CCOCC(=O)N2CCC(O)(c3ccccn3)CC2)cc1 [Example 42, N-{2-[2-(4′-hydroxy-3′,4′,5′,6′-tetrahydro-2′H-[2,4′]bipyridinyl-1′-yl)-2-oxo-ethoxy]-ethyl}-4-methoxy-N-methyl-phenylsulfonamide] | 0.67% | -38.1% |  | 
8 | COc1cc(C)c(S(=O)(=O)N(C)CCOCC(=O)N2CCC(O)(c3cccc(F)c3)CC2)c(C)c1 [Example 141, N-(2-(2-(4-(3-fluorophenyl)-4-hydroxypiperidin-1-yl)-2-oxoethoxy)ethyl)-4-methoxy-N,2,6-trimethylphenylsulfonamide] | 104% | 100% |  | 
9 | CN(CCOCC(=O)N1CCC(O)(c2ccccn2)CC1)S(=O)(=O)c1ccc(OC(F)(F)F)cc1 [Example 20, N-{2-[2-(4′-hydroxy-3′,4′,5′,6′-tetrahydro-2′H-[2,4′]bipyridinyl-1′-yl)-2-oxo-ethoxy]-ethyl}-N-methyl-4-trifluoromethoxy-phenylsulfonamide] | 22.2% | 17.1% |  | 
10 | CCN(CCOCC(=O)N1CCC(O)(Cc2ccccc2)CC1)S(=O)(=O)c1c(C)cc(OC)c(C)c1C [Example 1, N-{2-[2-(4-benzyl-4-hydroxy-piperidin-1-yl)-2-oxo-ethoxy]-ethyl}-N-ethyl-4-methoxy-2,3,6-trimethyl-phenylsulfonamide] | 104% | 102% |  | 
11 | O=C(COCC1CCCCN1S(=O)(=O)c1cccc(C(F)(F)F)c1)N1CCC(O)(c2ccccn2)CC1 (centres unmarked) [Example 96, 1-(4′-hydroxy-3′,4′,5′,6′-tetrahydro-2′H-[2,4′]bipyridinyl-1′-yl)-2-[1-(3-trifluoromethyl-phenylsulfonyl)-piperidin-2-ylmethoxy]-ethanone] | 50.5% | 46.2% |  | 
12 | COc1cc(C)c(S(=O)(=O)N(CCOCC(=O)N2CCC(O)(c3ccccc3)CC2)CC2CC2)c(C)c1C [Example 206, N-(cyclopropylmethyl)-N-(2-(2-(4-hydroxy-4-phenylpiperidin-1-yl)-2-oxoethoxy)ethyl)-4-methoxy-2,3,6-trimethylphenylsulfonamide] | 105% | 100% |  | 
13 | O=C(COCC1CCCN1S(=O)(=O)c1cc(Cl)sc1Cl)N1CCC(O)(c2ccccc2)CC1 (centres unmarked) [Example 225, 2-((1-(2,5-dichlorothiophen-3-ylsulfonyl)pyrrolidin-2-yl)methoxy)-1-(4-hydroxy-4-phenylpiperidin-1-yl)ethanone] | 43.1% | 88.5% |  | 
14 | CN(CCOCC(=O)N1CCC(O)(c2cccnc2)CC1)S(=O)(=O)c1ccc(Cl)s1 [Example 102, 5-chloro-thiophene-2-sulfonic acid {2-[2-(4′-hydroxy-3′,4′,5′,6′-tetrahydro-2′H-[3,4′]bipyridinyl-1′-yl)-2-oxo-ethoxy]-ethyl}-methyl-amide] | 14.2% | 16.1% |  | 
15 | O=C(COCC1CCCN1S(=O)(=O)c1cc(Cl)sc1Cl)N1CCC(O)(Cc2ccccc2)CC1 (centres unmarked) [Example 226, 1-(4-benzyl-4-hydroxypiperidin-1-yl)-2-((1-(2,5-dichlorothiophen-3-ylsulfonyl)pyrrolidin-2-yl)methoxy)ethanone] | 13% | 72.4% |  | 
16 | COc1cc(C)c(S(=O)(=O)N2CCCC2COCC(=O)N2CCC(O)(c3cccnc3)CC2)c(C)c1 (centres unmarked) [Example 193, 1-(4-hydroxy-4-(pyridin-3-yl)piperidin-1-yl)-2-((1-(4-methoxy-2,6-dimethylphenylsulfonyl)pyrrolidin-2-yl)methoxy)ethanone] | 104% | 96.6% |  | 
17 | O=C(COCC1CCCCN1S(=O)(=O)c1cc(Cl)sc1Cl)N1CCC(O)(c2cccnc2)CC1 (centres unmarked) [Example 229, 2-((1-(2,5-dichlorothiophen-3-ylsulfonyl)piperidin-2-yl)methoxy)-1-(4-hydroxy-4-(pyridin-3-yl)piperidin-1-yl)ethanone] | 65.5% | 100% |  | 
18 | Cc1cc(S(=O)(=O)N(C)CCOCC(=O)N2CCC(O)(c3ccc(Br)cc3)CC2)c(C)s1 [Example 257, N-(2-(2-(4-(4-bromophenyl)-4-hydroxypiperidin-1-yl)-2-oxoethoxy)ethyl)-N,2,5-trimethylthiophene-3-sulfonamide] | 49.4% | 101% |  | 
19 | COc1cc(C)c(S(=O)(=O)N(C)CCOCC(=O)N2CCC(O)(c3cccc(C(F)(F)F)c3)CC2)c(C)c1 [Example 132, N-(2-(2-(4-hydroxy-4-(3-(trifluoromethyl)phenyl)piperidin-1-yl)-2-oxoethoxy)ethyl)-4-methoxy-N,2,6-trimethylphenylsulfonamide] | 101% | 99.1% |  | 
20 | COc1cc(C)c(S(=O)(=O)N2CCCC2COCC(=O)N2CCC(O)(c3cccnc3)CC2)c(C)c1 (centres unmarked) [Example 89, 1-(4′-hydroxy-3′,4′,5′,6′-tetrahydro-2′H-[3,4′]bipyridinyl-1′-yl)-2-[1-(4-methoxy-2,6-dimethyl-phenylsulfonyl)-pyrrolidin-2-ylmethoxy]-ethanone; hydrochloride] |  |  | 104.46% | 100.44%
21 | COc1cc(C)c(S(=O)(=O)N2CCCCC2COCC(=O)N2CCC(O)(c3cccs3)CC2)c(C)c1 (centres unmarked) [Example 85, 1-(4-hydroxy-4-thiophen-2-yl-piperidin-1-yl)-2-[1-(4-methoxy-2,6-dimethyl-phenylsulfonyl)-piperidin-2-ylmethoxy]-ethanone] | 106% | 101% |  | 
22 | CN(c1ccccc1OCC(=O)N1CCC(O)(Cc2ccccc2)CC1)S(=O)(=O)c1ccc(Cl)c(Cl)c1 [Example 33, N-{2-[2-(4-benzyl-4-hydroxy-piperidin-1-yl)-2-oxo-ethoxy]-phenyl}-3,4-dichloro-N-methyl-phenylsulfonamide] | 6.18% | 19.4% |  | 
